From ChEMBL document CHEMBL1201862, “PubChem BioAssay data set” (2004) come the findings set out here.

Type in all cases: functional
The target in assay [1] is T1, Apoptotic protease-activating factor 1 (Homo sapiens, UniProt O14727).
T1 sequence (O14727 whole entry): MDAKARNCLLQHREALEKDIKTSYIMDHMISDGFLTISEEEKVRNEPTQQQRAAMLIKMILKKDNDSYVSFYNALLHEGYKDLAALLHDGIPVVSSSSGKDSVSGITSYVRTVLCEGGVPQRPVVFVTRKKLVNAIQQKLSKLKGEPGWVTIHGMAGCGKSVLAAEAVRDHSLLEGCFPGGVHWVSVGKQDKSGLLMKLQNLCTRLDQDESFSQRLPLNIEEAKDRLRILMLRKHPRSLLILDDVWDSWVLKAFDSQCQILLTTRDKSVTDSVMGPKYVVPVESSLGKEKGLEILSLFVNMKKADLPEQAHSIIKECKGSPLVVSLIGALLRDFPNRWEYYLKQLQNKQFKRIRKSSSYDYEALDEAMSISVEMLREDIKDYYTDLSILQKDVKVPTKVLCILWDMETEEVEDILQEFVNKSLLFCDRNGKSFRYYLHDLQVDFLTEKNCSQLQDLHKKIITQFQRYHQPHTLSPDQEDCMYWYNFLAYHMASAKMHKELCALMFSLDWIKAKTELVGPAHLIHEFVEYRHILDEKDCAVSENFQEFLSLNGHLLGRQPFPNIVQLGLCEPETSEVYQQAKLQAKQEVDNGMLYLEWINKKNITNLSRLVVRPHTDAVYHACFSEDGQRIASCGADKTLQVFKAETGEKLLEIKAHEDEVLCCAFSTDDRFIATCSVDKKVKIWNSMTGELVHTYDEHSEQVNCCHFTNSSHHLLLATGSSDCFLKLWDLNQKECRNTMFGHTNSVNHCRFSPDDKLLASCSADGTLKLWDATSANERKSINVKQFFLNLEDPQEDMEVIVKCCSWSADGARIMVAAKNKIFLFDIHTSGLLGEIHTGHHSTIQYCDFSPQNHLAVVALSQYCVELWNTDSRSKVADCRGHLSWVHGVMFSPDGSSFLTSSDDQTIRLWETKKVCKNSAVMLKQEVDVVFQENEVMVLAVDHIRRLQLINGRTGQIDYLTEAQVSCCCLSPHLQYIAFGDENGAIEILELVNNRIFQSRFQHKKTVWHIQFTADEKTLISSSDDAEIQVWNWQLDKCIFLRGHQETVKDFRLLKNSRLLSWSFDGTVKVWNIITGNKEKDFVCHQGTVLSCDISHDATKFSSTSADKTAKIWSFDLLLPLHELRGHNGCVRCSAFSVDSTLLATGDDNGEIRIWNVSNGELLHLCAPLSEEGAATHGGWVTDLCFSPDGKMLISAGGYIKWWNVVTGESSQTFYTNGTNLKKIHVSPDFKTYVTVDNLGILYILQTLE

Assay [2] has as its target Fibroblast growth factor receptor 1 (Homo sapiens, UniProt P11362).
The target of assay [3] is Serine/threonine-protein kinase DCLK1 (Homo sapiens, UniProt O15075).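 Further: affinity for DCLK1 (listed as DCAMKL1) measured as one member of a kinome-wide kinase profiling panel.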
Sequence of Serine/threonine-protein kinase DCLK1 (O15075 whole entry): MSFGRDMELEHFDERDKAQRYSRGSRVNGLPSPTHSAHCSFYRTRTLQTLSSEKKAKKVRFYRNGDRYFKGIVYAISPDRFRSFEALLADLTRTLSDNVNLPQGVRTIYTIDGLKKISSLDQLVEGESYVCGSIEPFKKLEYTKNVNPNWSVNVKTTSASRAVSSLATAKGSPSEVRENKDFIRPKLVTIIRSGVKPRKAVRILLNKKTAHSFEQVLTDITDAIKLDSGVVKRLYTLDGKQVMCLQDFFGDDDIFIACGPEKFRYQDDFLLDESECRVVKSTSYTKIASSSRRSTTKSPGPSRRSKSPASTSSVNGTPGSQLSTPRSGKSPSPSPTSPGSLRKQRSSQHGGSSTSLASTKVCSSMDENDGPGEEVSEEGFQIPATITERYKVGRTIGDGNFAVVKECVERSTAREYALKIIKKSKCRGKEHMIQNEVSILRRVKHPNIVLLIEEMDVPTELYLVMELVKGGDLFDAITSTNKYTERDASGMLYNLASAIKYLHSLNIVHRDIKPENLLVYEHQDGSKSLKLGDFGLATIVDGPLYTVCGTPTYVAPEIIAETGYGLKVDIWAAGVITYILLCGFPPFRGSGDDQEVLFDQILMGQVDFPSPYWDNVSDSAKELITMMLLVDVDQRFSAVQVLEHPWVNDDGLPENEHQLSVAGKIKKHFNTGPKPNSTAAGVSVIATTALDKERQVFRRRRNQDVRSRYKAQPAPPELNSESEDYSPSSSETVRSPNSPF
Assay [4] has as its target Mitogen-activated protein kinase 13 (Homo sapiens, UniProt O15264).
For the next assay, the target named is Aurora kinase A (Homo sapiens, UniProt O14965).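 Further: value from the Navigating the Kinome kinase panel profiling, panel entry STK6.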
In assay [5] the target is Dual specificity tyrosine-phosphorylation-regulated kinase 1B (Homo sapiens, UniProt Q9Y463). The experiment in a line: Navigating the Kinome. Panel member name: DYRK1B.
The target in assay [6] is Serine/threonine-protein kinase 17A (Homo sapiens, UniProt Q9UEE5).
Sequence of Serine/threonine-protein kinase 17A (Q9UEE5 whole entry): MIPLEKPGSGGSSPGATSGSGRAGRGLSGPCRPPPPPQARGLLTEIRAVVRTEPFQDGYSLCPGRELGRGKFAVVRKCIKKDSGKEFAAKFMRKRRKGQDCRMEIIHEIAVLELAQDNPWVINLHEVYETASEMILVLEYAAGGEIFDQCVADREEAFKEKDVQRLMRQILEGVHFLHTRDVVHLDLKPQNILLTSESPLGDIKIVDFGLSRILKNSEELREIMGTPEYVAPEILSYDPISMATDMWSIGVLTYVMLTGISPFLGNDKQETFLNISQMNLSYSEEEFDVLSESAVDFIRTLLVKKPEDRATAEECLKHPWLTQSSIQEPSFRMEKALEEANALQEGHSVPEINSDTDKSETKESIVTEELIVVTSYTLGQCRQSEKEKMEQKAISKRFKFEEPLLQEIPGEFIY
Assay [7] concerns the target Cyclin-dependent kinase 7 (Homo sapiens, UniProt P50613).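 Further: value comes from a kinome-wide kinase profiling panel in which CDK7 is one member.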
For the next assay, the target named is Insulin receptor (Homo sapiens, UniProt P06213).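 Further: insulin receptor kinase tested as one member of a kinome-wide kinase panel.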
Sequence of Insulin receptor (P06213 28-758 limits assumed): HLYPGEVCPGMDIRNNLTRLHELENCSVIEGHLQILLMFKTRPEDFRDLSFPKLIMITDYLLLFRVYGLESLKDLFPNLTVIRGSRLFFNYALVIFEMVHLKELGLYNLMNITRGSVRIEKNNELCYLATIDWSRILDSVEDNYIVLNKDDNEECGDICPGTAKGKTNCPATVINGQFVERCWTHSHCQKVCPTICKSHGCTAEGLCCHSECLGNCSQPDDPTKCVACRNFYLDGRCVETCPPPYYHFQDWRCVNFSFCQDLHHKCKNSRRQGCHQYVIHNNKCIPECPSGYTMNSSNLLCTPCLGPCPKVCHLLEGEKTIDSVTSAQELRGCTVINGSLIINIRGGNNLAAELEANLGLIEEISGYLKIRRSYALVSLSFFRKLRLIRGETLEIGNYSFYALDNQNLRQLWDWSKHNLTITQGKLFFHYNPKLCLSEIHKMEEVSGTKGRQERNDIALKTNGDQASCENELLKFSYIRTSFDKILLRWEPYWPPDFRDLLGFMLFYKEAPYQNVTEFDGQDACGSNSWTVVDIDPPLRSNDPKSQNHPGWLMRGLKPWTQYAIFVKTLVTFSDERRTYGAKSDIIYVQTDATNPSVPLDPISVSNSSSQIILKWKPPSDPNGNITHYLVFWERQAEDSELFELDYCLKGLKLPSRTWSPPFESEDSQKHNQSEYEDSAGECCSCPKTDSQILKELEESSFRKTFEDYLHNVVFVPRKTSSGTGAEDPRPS
Sequence of Insulin receptor (P06213 763-1382 limits assumed): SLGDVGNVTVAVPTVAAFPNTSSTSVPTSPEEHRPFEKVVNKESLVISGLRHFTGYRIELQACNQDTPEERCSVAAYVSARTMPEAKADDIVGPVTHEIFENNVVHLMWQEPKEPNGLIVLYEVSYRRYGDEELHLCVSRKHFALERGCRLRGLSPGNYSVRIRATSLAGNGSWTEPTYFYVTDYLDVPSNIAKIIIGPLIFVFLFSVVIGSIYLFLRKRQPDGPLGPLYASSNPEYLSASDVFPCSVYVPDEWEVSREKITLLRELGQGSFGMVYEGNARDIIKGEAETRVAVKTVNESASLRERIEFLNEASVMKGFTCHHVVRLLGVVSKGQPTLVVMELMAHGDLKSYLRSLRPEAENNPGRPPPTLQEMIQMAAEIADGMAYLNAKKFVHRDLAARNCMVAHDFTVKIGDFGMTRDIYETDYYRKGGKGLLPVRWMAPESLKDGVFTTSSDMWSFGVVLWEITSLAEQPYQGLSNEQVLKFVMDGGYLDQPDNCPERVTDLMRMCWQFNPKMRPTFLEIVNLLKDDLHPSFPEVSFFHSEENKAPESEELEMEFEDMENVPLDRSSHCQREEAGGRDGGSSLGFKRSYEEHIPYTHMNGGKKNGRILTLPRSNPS
Assay [8] concerns the target Vascular endothelial growth factor receptor 1 (Homo sapiens, UniProt P17948).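 Further: measured within a kinome-wide profiling panel, FLT1 as the panel member.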
In assay [9] the target is Protein kinase C gamma type (Homo sapiens, UniProt P05129).
Assay [10] has as its target Protein kinase C zeta type (Homo sapiens, UniProt Q05513).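 Further: measured as one member of a broad kinase profiling panel.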
For assay [11], the target named is cAMP-dependent protein kinase catalytic subunit alpha (Homo sapiens, UniProt P17612).
The target in assay [12] is Non-receptor tyrosine-protein kinase TYK2 (Homo sapiens, UniProt P29597).
For assay [13], the target named is Protein kinase C theta type (Homo sapiens, UniProt Q04759). The experiment in a line: Navigating the Kinome. Panel member name: PRKCQ.
Assay [14] addresses Protein-tyrosine kinase 2-beta (Homo sapiens, UniProt Q14289).
Assay [15] deals with cAMP-dependent protein kinase catalytic subunit PRKX (Homo sapiens, UniProt P51817).
Sequence of cAMP-dependent protein kinase catalytic subunit PRKX (P51817 whole entry): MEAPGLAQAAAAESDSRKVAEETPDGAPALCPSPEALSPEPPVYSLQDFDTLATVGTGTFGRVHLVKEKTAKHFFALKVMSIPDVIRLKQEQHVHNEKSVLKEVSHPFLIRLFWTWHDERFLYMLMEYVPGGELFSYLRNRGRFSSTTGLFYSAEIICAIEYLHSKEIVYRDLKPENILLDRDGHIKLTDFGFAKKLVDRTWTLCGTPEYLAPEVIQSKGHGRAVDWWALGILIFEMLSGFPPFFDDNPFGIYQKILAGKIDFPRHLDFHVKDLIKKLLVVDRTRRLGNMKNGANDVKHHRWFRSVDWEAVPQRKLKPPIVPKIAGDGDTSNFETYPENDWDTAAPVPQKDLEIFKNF

The structures appear in SMILES notation. Activity calls are given as the source filed them.

A word on the IC50: it is the concentration that inhibits the measured activity by half. A word on the Ki: it is a measure of affinity in units of concentration, obtained from inhibition or displacement.

Sequence of Protein kinase C zeta type (Q05513 whole entry): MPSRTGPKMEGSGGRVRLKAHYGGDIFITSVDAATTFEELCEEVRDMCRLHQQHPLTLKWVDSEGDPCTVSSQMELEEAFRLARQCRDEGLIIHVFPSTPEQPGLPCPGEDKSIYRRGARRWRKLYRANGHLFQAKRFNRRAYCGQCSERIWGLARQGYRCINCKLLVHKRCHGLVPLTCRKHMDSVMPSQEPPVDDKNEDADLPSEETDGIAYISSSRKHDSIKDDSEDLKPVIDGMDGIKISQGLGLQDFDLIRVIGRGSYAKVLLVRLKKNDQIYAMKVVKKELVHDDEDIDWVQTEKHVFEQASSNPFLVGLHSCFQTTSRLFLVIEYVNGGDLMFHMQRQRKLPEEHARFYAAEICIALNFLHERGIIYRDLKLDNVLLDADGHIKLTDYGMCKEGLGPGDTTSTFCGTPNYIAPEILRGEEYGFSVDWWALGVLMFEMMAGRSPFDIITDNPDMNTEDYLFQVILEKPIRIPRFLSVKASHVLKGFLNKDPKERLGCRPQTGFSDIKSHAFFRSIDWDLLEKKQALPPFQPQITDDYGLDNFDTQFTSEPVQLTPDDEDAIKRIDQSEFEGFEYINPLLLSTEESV
Sequence of Mitogen-activated protein kinase 13 (O15264 whole entry): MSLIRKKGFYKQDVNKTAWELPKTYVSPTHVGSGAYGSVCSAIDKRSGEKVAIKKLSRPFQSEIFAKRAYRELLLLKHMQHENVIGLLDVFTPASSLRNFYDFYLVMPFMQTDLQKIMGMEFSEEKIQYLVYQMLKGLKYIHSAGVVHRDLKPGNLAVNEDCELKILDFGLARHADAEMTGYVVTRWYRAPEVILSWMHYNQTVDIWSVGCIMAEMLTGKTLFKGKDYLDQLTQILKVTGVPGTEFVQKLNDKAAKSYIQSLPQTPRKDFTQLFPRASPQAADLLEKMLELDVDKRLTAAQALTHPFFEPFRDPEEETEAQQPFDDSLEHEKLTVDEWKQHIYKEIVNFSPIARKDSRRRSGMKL
Sequence of Protein-tyrosine kinase 2-beta (Q14289 whole entry): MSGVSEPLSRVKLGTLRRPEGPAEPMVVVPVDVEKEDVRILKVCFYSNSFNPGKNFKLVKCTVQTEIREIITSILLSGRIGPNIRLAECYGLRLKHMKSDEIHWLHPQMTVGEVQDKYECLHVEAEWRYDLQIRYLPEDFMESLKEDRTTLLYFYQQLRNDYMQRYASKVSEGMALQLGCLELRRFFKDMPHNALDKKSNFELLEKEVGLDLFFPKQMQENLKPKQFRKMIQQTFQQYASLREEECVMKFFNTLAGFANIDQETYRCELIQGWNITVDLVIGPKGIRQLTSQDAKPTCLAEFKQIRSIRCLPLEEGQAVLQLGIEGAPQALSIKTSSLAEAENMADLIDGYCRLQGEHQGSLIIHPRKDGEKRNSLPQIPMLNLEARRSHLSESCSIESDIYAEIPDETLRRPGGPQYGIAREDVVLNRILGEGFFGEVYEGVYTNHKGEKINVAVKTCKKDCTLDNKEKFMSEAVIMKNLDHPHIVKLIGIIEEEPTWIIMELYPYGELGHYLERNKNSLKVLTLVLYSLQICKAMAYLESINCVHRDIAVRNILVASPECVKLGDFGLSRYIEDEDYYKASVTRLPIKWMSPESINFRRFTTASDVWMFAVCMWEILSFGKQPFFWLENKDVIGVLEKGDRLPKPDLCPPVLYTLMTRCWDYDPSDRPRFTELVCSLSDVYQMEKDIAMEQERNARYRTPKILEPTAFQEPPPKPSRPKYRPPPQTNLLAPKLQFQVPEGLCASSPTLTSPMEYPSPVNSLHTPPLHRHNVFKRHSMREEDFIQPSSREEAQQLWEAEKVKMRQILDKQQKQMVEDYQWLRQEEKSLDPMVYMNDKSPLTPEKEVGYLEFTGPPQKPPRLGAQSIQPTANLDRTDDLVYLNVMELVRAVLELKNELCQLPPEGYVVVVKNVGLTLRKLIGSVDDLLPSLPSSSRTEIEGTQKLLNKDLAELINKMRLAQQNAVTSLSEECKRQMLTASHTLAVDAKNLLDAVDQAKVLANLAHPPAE

Consider `COc1cc(Br)c(C(=O)c2nccc3cc(OC)c(OC)cc23)cc1OC`, for which the IC50 in [1] was 7.37 µM (active).

`CC(N)C1CCC(C(=O)Nc2ccnc3[nH]ccc23)CC1` (configuration not stated): the Ki in assay [2] is > 3.98 µM (inactive); in assay [3], > 10 µM (inactive); in assay [4] it was > 7.94 µM (inactive); on Aurora kinase A it was > 2 µM (inactive); in assay [5] it was 158 nM (active); in [6], 3.98 µM (active). Moreover, the Ki is 1 µM (active) in [7]; > 5.01 µM (inactive) on Insulin receptor; > 2 µM (inactive) in assay [8]; 2.51 µM (active) in assay [9]; > 7.94 µM (inactive) in assay [10]; 79.4 nM (active) in assay [11]. Moreover, the Ki in [12] was > 2 µM (inactive); in assay [13], 7.94 nM (active); in assay [14], > 1.58 µM (inactive); in assay [15] it was 501 nM (active).
